Test results reported in ChEMBL document CHEMBL1240349, “Influence of tigecycline on expression of virulence factors in biofilm-associated cells of methicillin-resistant Staphylococcus aureus” (2010).

Experiments:
Type in all cases: functional
[1] = tested on: Staphylococcus aureus; assay: Increase in dltB gene expression in biofilm-associated cells of epidemic methicillin-resistant Staphylococcus aureus isolate 16 at 4 times MIC incubated for 1 hr by whole genome microarray relative to untreated control
[2] = tested on: Staphylococcus aureus; assay: Increase in sarA gene expression in biofilm-associated cells of epidemic methicillin-resistant Staphylococcus aureus isolate 16 at 4 times MIC incubated for 1 hr by whole genome microarray relative to untreated control
[3] = tested on: Staphylococcus aureus; assay: Increase in isaA expression in biofilm-associated cells of epidemic methicillin-resistant Staphylococcus aureus isolate 16-2 at 4 times MIC incubated for 1 hr by RT-PCR relative to untreated control
[4] = tested on: Staphylococcus aureus; assay: Increase in mnhG expression in biofilm-associated cells of epidemic methicillin-resistant Staphylococcus aureus isolate 16-1 at 4 times MIC incubated for 1 hr by RT-PCR relative to untreated control
[5] = tested on: Staphylococcus aureus; assay: Decrease in tst expression in biofilm-associated cells of epidemic methicillin-resistant Staphylococcus aureus isolate 16-2 at 4 times MIC incubated for 1 hr by RT-PCR relative to untreated control
[6] = tested on: Staphylococcus aureus; assay: Decrease in capD gene expression in biofilm-associated cells of epidemic methicillin-resistant Staphylococcus aureus isolate 16 at 4 times MIC incubated for 1 hr by whole genome microarray relative to untreated control
[7] = tested on: Staphylococcus aureus; assay: Increase in rplB gene expression in biofilm-associated cells of epidemic methicillin-resistant Staphylococcus aureus isolate 16 at 4 times MIC incubated for 1 hr by whole genome microarray relative to untreated control
[8] = tested on: Staphylococcus aureus; assay: Decrease in capG expression in biofilm-associated cells of epidemic methicillin-resistant Staphylococcus aureus isolate 16-2 at 4 times MIC incubated for 1 hr by RT-PCR relative to untreated control
[9] = tested on: Staphylococcus aureus; assay: Increase in isaA gene expression in biofilm-associated cells of epidemic methicillin-resistant Staphylococcus aureus isolate 16 at 4 times MIC incubated for 1 hr by RT-PCR relative to untreated control
[10] = tested on: Staphylococcus aureus; assay: Decrease in sasF expression in biofilm-associated cells of epidemic methicillin-resistant Staphylococcus aureus isolate 15 at 4 times MIC incubated for 1 hr by RT-PCR relative to untreated control
[11] = tested on: Staphylococcus aureus; assay: Decrease in mecI gene expression in biofilm-associated cells of epidemic methicillin-resistant Staphylococcus aureus isolate 16 at 4 times MIC incubated for 1 hr by whole genome microarray relative to untreated control
[12] = tested on: Staphylococcus aureus; assay: Increase in fnbA gene expression in biofilm-associated cells of epidemic methicillin-resistant Staphylococcus aureus isolate 16 at 4 times MIC incubated for 1 hr by whole genome microarray relative to untreated control
[13] = tested on: Staphylococcus aureus; assay: Increase in rplC gene expression in biofilm-associated cells of epidemic methicillin-resistant Staphylococcus aureus isolate 16 at 4 times MIC incubated for 1 hr by whole genome microarray relative to untreated control
[14] = tested on: Staphylococcus aureus; assay: Increase in clfB expression in biofilm-associated cells of epidemic methicillin-resistant Staphylococcus aureus isolate 16-1 at 4 times MIC incubated for 1 hr by RT-PCR relative to untreated control
[15] = tested on: Staphylococcus aureus; assay: Increase in rpoC gene expression in biofilm-associated cells of epidemic methicillin-resistant Staphylococcus aureus isolate 16 at 4 times MIC incubated for 1 hr by whole genome microarray relative to untreated control
[16] = tested on: Staphylococcus aureus; assay: Increase in topA gene expression in biofilm-associated cells of epidemic methicillin-resistant Staphylococcus aureus isolate 16 at 4 times MIC incubated for 1 hr by whole genome microarray relative to untreated control
[17] = tested on: Staphylococcus aureus; assay: Increase in icaC expression in biofilm-associated cells of epidemic methicillin-resistant Staphylococcus aureus isolate 16-2 at 4 times MIC incubated for 1 hr by RT-PCR relative to untreated control
[18] = tested on: Staphylococcus aureus; assay: Increase in tuf gene expression in biofilm-associated cells of epidemic methicillin-resistant Staphylococcus aureus isolate 16 at 4 times MIC incubated for 1 hr by whole genome microarray relative to untreated control
[19] = tested on: Staphylococcus aureus; assay: Decrease in mnhG expression in biofilm-associated cells of epidemic methicillin-resistant Staphylococcus aureus isolate 16-2 at 4 times MIC incubated for 1 hr by RT-PCR relative to untreated control
[20] = tested on: Staphylococcus aureus; assay: Decrease in sasF gene expression in biofilm-associated cells of epidemic methicillin-resistant Staphylococcus aureus isolate 16 at 4 times MIC incubated for 1 hr by whole genome microarray relative to untreated control
[21] = tested on: Staphylococcus aureus; assay: Increase in infC gene expression in biofilm-associated cells of epidemic methicillin-resistant Staphylococcus aureus isolate 16 at 4 times MIC incubated for 1 hr by whole genome microarray relative to untreated control
[22] = tested on: Staphylococcus aureus; assay: Decrease in sdrD gene expression in biofilm-associated cells of epidemic methicillin-resistant Staphylococcus aureus isolate 16 at 4 times MIC incubated for 1 hr by whole genome microarray relative to untreated control
[23] = tested on: Staphylococcus aureus; assay: Increase in ssaA gene expression in biofilm-associated cells of epidemic methicillin-resistant Staphylococcus aureus isolate 16 at 4 times MIC incubated for 1 hr by RT-PCR relative to untreated control
[24] = tested on: Staphylococcus aureus; assay: Increase in tcaR gene expression in biofilm-associated cells of epidemic methicillin-resistant Staphylococcus aureus isolate 16 at 4 times MIC incubated for 1 hr by whole genome microarray relative to untreated control
[25] = tested on: Staphylococcus aureus; assay: Increase in sstD gene expression in biofilm-associated cells of epidemic methicillin-resistant Staphylococcus aureus isolate 16 at 4 times MIC incubated for 1 hr by whole genome microarray relative to untreated control
[26] = tested on: Staphylococcus aureus; assay: Increase in infA gene expression in biofilm-associated cells of epidemic methicillin-resistant Staphylococcus aureus isolate 16 at 4 times MIC incubated for 1 hr by whole genome microarray relative to untreated control
[27] = tested on: Staphylococcus aureus; assay: Decrease in capC expression in biofilm-associated cells of epidemic methicillin-resistant Staphylococcus aureus isolate 16-2 at 4 times MIC incubated for 1 hr by RT-PCR relative to untreated control
[28] = tested on: Staphylococcus aureus; assay: Increase in isaA expression in biofilm-associated cells of epidemic methicillin-resistant Staphylococcus aureus isolate 16-1 at 4 times MIC incubated for 1 hr by RT-PCR relative to untreated control
[29] = tested on: Staphylococcus aureus; assay: Increase in saeR gene expression in biofilm-associated cells of epidemic methicillin-resistant Staphylococcus aureus isolate 16 at 4 times MIC incubated for 1 hr by whole genome microarray relative to untreated control
[30] = tested on: Staphylococcus aureus; assay: Decrease in capC gene expression in biofilm-associated cells of epidemic methicillin-resistant Staphylococcus aureus isolate 16 at 4 times MIC incubated for 1 hr by RT-PCR relative to untreated control
[31] = tested on: Staphylococcus aureus; assay: Decrease in clpC expression in biofilm-associated cells of epidemic methicillin-resistant Staphylococcus aureus isolate 15 at 4 times MIC incubated for 1 hr by RT-PCR relative to untreated control

Q: With `CN(C)c1cc(NC(=O)CNC(C)(C)C)c(O)c2c1C[C@H]1C[C@H]3[C@H](N(C)C)C(O)=C(C(N)=O)C(=O)[C@@]3(O)C(O)=C1C2=O` [TIGECYCLINE] as the compound, how does the “fold change (FC)” value [1] read?
A: Its value is 2.02.

Q: What about the “fold change (FC)” value [2] of the same compound?
A: Its value is 2.37.

Q: What about the “fold change (FC)” value [3] of the same compound?
A: The value was 3.7.

Q: What about the “fold change (FC)” value [4] of the same compound?
A: The value was 5.16.

Q: What about the “fold change (FC)” value [5] of the same compound?
A: Its value is 5.52.

Q: What about the “fold change (FC)” value [6] of the same compound?
A: Its value is 2.19.

Q: What about the “fold change (FC)” value [7] of the same compound?
A: The value was 13.38.

Q: What about the “fold change (FC)” value [8] of the same compound?
A: The value was 1.96.

Q: And the “fold change (FC)” value [9]?
A: Its value is 7.68.

Q: And the “fold change (FC)” value [10]?
A: Its value is 1.86.

Q: And the “fold change (FC)” value [11]?
A: The value was 2.39.

Q: And the “fold change (FC)” value [12]?
A: Its value is 2.3.

Q: And the “fold change (FC)” value [13]?
A: Its value is 12.06.

Q: What about the “fold change (FC)” value [14] of the same compound?
A: Its value is 7.5.

Q: What about the “fold change (FC)” value [15] of the same compound?
A: Its value is 3.28.

Q: And the “fold change (FC)” value [16]?
A: The value was 2.26.

Q: What about the “fold change (FC)” value [17] of the same compound?
A: The value was 1.6.

Q: And the “fold change (FC)” value [18]?
A: The value was 7.41.

Q: What about the “fold change (FC)” value [19] of the same compound?
A: The value was 6.99.

Q: And the “fold change (FC)” value [20]?
A: The value was 2.3.

Q: What about the “fold change (FC)” value [21] of the same compound?
A: Its value is 6.29.

Q: And the “fold change (FC)” value [22]?
A: Its value is 2.46.

Q: What about the “fold change (FC)” value [23] of the same compound?
A: The value was 2.04.

Q: What about the “fold change (FC)” value [24] of the same compound?
A: The value was 2.79.

Q: And the “fold change (FC)” value [25]?
A: Its value is 3.27.

Q: And the “fold change (FC)” value [26]?
A: The value was 4.77.

Q: What about the “fold change (FC)” value [27] of the same compound?
A: The value was 1.09.

Q: What about the “fold change (FC)” value [28] of the same compound?
A: Its value is 7.68.

Q: And the “fold change (FC)” value [29]?
A: Its value is 2.02.

Q: And the “fold change (FC)” value [30]?
A: Its value is 1.75.

Q: What about the “fold change (FC)” value [31] of the same compound?
A: Its value is 1.23.
